Common to all, as to test: DTP human tumour cell line panel, 48 h
For experiment [1], the system named is MOLT-4 leukemia.
Experiment [2] has as its system HL-60(TB) leukemia.
The test system of experiment [3] is SK-OV-3 ovarian.
Experiment [4] concerns IGROV1 ovarian.
Experiment [5] concerns BT-549 breast.
For experiment [6], the system named is HOP-62 NSCLC.
For experiment [7], the system named is SN12C renal.
Experiment [8] relates to U251 CNS.
Experiment [9] has as its system DU-145 prostate.
Experiment [10] relates to SF-295 CNS.

Several values for one entry are separate records, joined by “and”; a condition that tells them apart may be missing. Identical values can stand only once.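 Protocol summary: plate cells (96-well), add compound at 5 concentrations, incubate 48 h, interpolate endpoints linearly. GI50 marks 50% less growth. TGI is the concentration that stops growth completely.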 Bounds are passed on as bounds.

For orientation: GI50 means the concentration giving 50% growth inhibition. By TGI is commonly meant the concentration at which net growth stops. A low value points to more potent growth arrest. For `Cn1cc(-c2ccc(-c3cn(C)c4ccc(Cl)cc34)s2)c2cc(Cl)ccc21`, the GI50 in experiment [1], in [2], in experiment [3], in experiment [4], in experiment [5] and in [6] was more than 100 µM throughout. Besides, the GI50 in [7], in experiment [8], in [9] and in [10] was more than 100 µM throughout. Also, the TGI in [1], in experiment [2], in [3], in experiment [4], in experiment [5] and in experiment [6] was more than 100 µM in each case. For the same compound, the TGI in experiment [7], in experiment [8], in [9] and in experiment [10] was more than 100 µM in each case.

Turning to `O=C(CCCSc1nc(-c2ccccc2)cc(-c2ccc(Cl)cc2)n1)NO`, the GI50 in experiment [1] is 1.51 µM; in [2], 2.35 µM; in experiment [3] it was 3.12 µM; in [4], 2.08 µM; in experiment [5], 3.46 µM; in [6] it was 1.04 µM. In addition, the GI50 is 1.18 µM in experiment [7], 1.66 µM in experiment [8], 1.39 µM in experiment [9] and 2.03 µM in experiment [10]. The TGI in [1] was found to be 10.6 µM; in experiment [2] it was 9.26 µM; in experiment [3] it was 12.4 µM; in experiment [4], 11.7 µM; in experiment [5], 17.6 µM; in experiment [6] it was 17.4 µM. Further, the TGI in [7] was found to be 7.72 µM; in experiment [8], 12.7 µM; in [9], 8.94 µM; in experiment [10] it was 5.71 µM.

Take `C/C=C/[C@@H]1OC(=O)C2=C[C@@H](O)[C@@H](/C=C/C)O[C@H]21`: the GI50 in [1] is 1.73 µM; in experiment [2], 7.47 µM; in experiment [3] it was 20.5 µM; in [4], 7.62 µM; in experiment [5] it was 2.31 µM; in experiment [6] it was 20 µM. Further, the GI50 is 3.76 µM in [7], 14.6 µM in experiment [8], 0.989 µM in [9] and 18 µM in experiment [10]. The TGI in experiment [1] is more than 19.7 µM; in experiment [2], more than 100 µM; in experiment [3] it was 36.6 µM; in [4], more than 56 µM; in experiment [5], 8.67 µM; in experiment [6] it was 36.2 µM. The TGI in [7] was determined as 12.6 µM; in experiment [8] it was 35.6 µM; in experiment [9], 4.83 µM; in experiment [10], 44.8 µM.

`CN(C)c1ccc(C(=C2C=CC(=[N+](C)C)C=C2)c2ccc(N(C)C)cc2)cc1`: the GI50 was 0.297 µM in experiment [1]; 0.16 µM in experiment [2]; 0.268 µM in experiment [3]; 0.264 µM in experiment [4]; 0.18 µM in experiment [5]; 0.0447 µM in [6]. For the same compound, the GI50 in experiment [7] was 0.04 µM; in experiment [8] it was 0.0462 µM; in experiment [9], 0.0783 µM. The TGI in [1] was 2.41 µM and 0.543 µM; in experiment [2] it was 0.493 µM and 0.173 µM; in experiment [3], 0.86 µM and 0.718 µM; in experiment [4], 2.26 µM and 1.4 µM; in [5], 0.621 µM; in experiment [6], 1.11 µM and 2.43 µM. The TGI in experiment [7] was 1.43 µM and 0.902 µM; in experiment [8], 0.565 µM and 1.14 µM; in experiment [9], 1.23 µM; in experiment [10] it was 0.244 µM and 0.885 µM.

Regarding `COC(=O)C(F)C(Br)C(=O)OC` (stereo unspecified), the concentration for total growth inhibition (TGI) in experiment [1] was 3.01 µM; in experiment [2], 3.93 µM; in [3], 34.6 µM; in experiment [4] it was more than 20.5 µM; in [5], 31 µM; in experiment [6] it was 35.7 µM. Further, the TGI was 30.9 µM in experiment [7], 9.84 µM in experiment [8], 27.5 µM in experiment [9] and 70.1 µM in [10].

As to `c1ccc(P(CCP(CCP(c2ccccc2)c2ccccc2)c2ccccc2)CCP(c2ccccc2)c2ccccc2)cc1` (stereo unspecified), the TGI in [1] was 5.85 µM; in experiment [2], 3.69 µM; in experiment [3], more than 10 µM; in experiment [4], more than 10 µM; in experiment [5] it was more than 10 µM; in [6] it was more than 10 µM. Further, the TGI in experiment [7], in [8], in experiment [9] and in experiment [10] was more than 10 µM each time. In addition, the GI50 in experiment [7] was > 10 µM and 3.94 µM; in experiment [8] it was > 10 µM and 1.04 µM; in experiment [10] it was > 10 µM and 3.56 µM.

On to `Nc1cc(N)c2nc(-c3ccccc3)c(NCc3ccc(F)cc3)nc2c1`, for which the GI50 in experiment [1] is more than 100 µM; in experiment [2] it was 3.85 µM; in [3], 12.9 µM; in experiment [4], 3.11 µM; in [5], 1.69 µM; in experiment [6] it was 39.1 µM. In addition, the GI50 in experiment [7] was 7.5 µM; in [8], 1.6 µM; in experiment [9], 1.5 µM; in [10], 3.5 µM. Besides, the TGI is more than 100 µM in experiment [1]; more than 100 µM in [2]; 26.4 µM in [3]; more than 100 µM in experiment [4]; 3.26 µM in experiment [5]; more than 100 µM in experiment [6]. The TGI was 23.7 µM in experiment [7], 3.16 µM in experiment [8], 3.81 µM in experiment [9] and 13.6 µM in experiment [10].

Regarding `Cn1ccnc1C(=O)/C=C/c1ccc(CC(=O)Nc2ccc(C(F)(F)F)cc2)cc1`, the GI50 in experiment [1] was 1.17 µM; in experiment [2], 1.8 µM; in [3], 6.6 µM; in experiment [4] it was 4.37 µM; in experiment [5], 2.56 µM; in experiment [6] it was more than 16.7 µM. Also, the GI50 in [7] was 4.32 µM; in experiment [8], 1.89 µM; in [9], 2.97 µM; in experiment [10], 2.56 µM. For the same compound, the TGI in [1] was 8.06 µM; in experiment [2], 9.82 µM; in experiment [3], more than 16.7 µM; in experiment [4] it was 12.9 µM; in experiment [5] it was 5.33 µM; in experiment [6] it was more than 16.7 µM. For the same compound, the total growth inhibition concentration (TGI) is more than 16.7 µM in [7], 3.93 µM in experiment [8], 6.42 µM in [9] and 5.17 µM in [10].

`COc1cc2c3c(n(C)c(=O)c2cc1OC)-c1cc2c(cc1/C3=C\C(N)CN)OCO2` (stereo unspecified): the GI50 was 0.125 µM in experiment [1]; 8.69 µM in experiment [2]; 2.45 µM in experiment [3]; 0.791 µM in experiment [4]; 0.72 µM in [5]; 1.29 µM in [6]. The GI50 was 1.81 µM in experiment [7], 0.371 µM in experiment [8], 2.02 µM in [9] and 1.31 µM in experiment [10]. The TGI in experiment [1] is more than 40.7 µM; in experiment [2], more than 100 µM; in experiment [3], 13.1 µM; in experiment [5], 4.52 µM; in experiment [6], 8.91 µM; in experiment [7] it was more than 26.4 µM. Moreover, the TGI was 2.42 µM in experiment [8], 10 µM in experiment [9] and 7.79 µM in experiment [10].

For the compound `O=C(c1cccnc1)c1cc(-c2ccccn2)c(=O)n2ccccc12`, the GI50 in [1], in [2], in [3], in experiment [4], in experiment [5] and in experiment [6] was more than 100 µM in each case. The GI50 in [7], in experiment [8], in [9] and in experiment [10] was more than 100 µM in each case. Besides, the TGI in experiment [1], in experiment [2], in experiment [3], in experiment [4], in [5] and in experiment [6] was more than 100 µM each time. Also, the TGI in experiment [7], in experiment [8], in [9] and in [10] was more than 100 µM in each case.

Turning to `FC(F)(F)c1ccc(-c2cnc(Cl)nc2NCc2cc(C(F)(F)F)cc(C(F)(F)F)c2)cc1`, the GI50 was 3.94 µM in experiment [1]; 2.6 µM in experiment [2]; 3.4 µM in experiment [3]; 7.87 µM in experiment [4]; 5.59 µM in [5]; 3.86 µM in experiment [6]. Also, the GI50 in experiment [7] is 2.81 µM; in [8], 2.81 µM; in experiment [9], 3.92 µM; in experiment [10], 2.66 µM. In addition, the TGI was more than 100 µM in experiment [1]; 6.73 µM in experiment [2]; more than 100 µM in experiment [3]; more than 100 µM in [4]; more than 100 µM in [5]; more than 100 µM in experiment [6]. The TGI in experiment [7], in experiment [8], in experiment [9] and in experiment [10] was more than 100 µM in each case.

As to `Cc1ccc2c(c1)C(=O)c1c-2n(CCCBr)c(=O)c2cc([N+](=O)[O-])ccc12`, the GI50 in [1] was 26.6 µM; in experiment [2], 18.3 µM; in [3], more than 100 µM; in experiment [4], 6.65 µM; in experiment [5], more than 100 µM; in experiment [6], 24.4 µM. Also, the GI50 in experiment [7] is 46.4 µM; in [8], 24.8 µM; in experiment [9], 49.8 µM; in experiment [10], 73.8 µM. The TGI in experiment [1] was more than 100 µM; in experiment [2], more than 100 µM; in experiment [3], more than 100 µM; in experiment [4], 65.8 µM; in [5], more than 100 µM; in experiment [6], more than 100 µM. Further, the TGI in experiment [7], in experiment [8], in experiment [9] and in experiment [10] was more than 100 µM throughout.

With `CC(C)c1ccc(Nc2nccc(-c3cnn4ncccc34)n2)cc1`, the GI50 in experiment [1] was 0.888 µM; in experiment [2], 1.32 µM; in [3] it was 0.93 µM; in [4] it was 0.502 µM; in [5], 0.967 µM; in experiment [6] it was 0.563 µM. Also, the GI50 in [7] is 0.66 µM; in experiment [8], 0.559 µM; in [9], 0.809 µM; in [10] it was 0.523 µM. The TGI in experiment [1] is 4.19 µM; in experiment [2], 4.12 µM; in experiment [3] it was 2.89 µM; in experiment [4], more than 19.5 µM; in experiment [5], more than 25 µM; in [6] it was 2.59 µM. The TGI is more than 17.9 µM in experiment [7], more than 9.71 µM in experiment [8], more than 9.19 µM in experiment [9] and 12.2 µM in experiment [10].

Take `CS(=O)(=O)Nc1ccc(N=Cc2c(O)[nH]c3ccccc23)cc1`: the GI50 in experiment [1], in experiment [2], in experiment [3], in experiment [4], in experiment [5] and in experiment [6] was more than 25 µM in each case. Moreover, the GI50 in [7], in experiment [8], in [9] and in [10] was more than 25 µM in each case. The TGI in experiment [1], in experiment [2], in [3], in experiment [4], in [5] and in experiment [6] was more than 25 µM in each case. The TGI in [7], in experiment [8], in experiment [9] and in [10] was more than 25 µM in each case.

For the compound `Nc1ccc(-c2ccc(N)cc2I)c(I)c1`, the GI50 in experiment [1] is 9.89 µM; in experiment [2], 18.4 µM; in [3], 17 µM; in [4], 13.9 µM; in [5], 13.8 µM; in [6], 17.5 µM. In addition, the GI50 in [7] was 19.7 µM; in experiment [8], 16.3 µM; in experiment [9] it was 21.8 µM; in [10] it was 15.5 µM. The total growth inhibition concentration (TGI) in experiment [1] turned out to be 43.6 µM; in experiment [2] it was 47.6 µM; in experiment [3] it was 44.4 µM; in [4], 56.1 µM; in experiment [5], 36.1 µM; in experiment [6] it was 39.4 µM. The TGI in experiment [7] was 55.8 µM; in experiment [8], 35.6 µM; in [9] it was 59.9 µM; in experiment [10], 33.9 µM.

The record behind these values is PubChem BioAssay (NCI).
